Data published in patent US12226401B2, “Molecular genetic approach to treatment and diagnosis of alcohol and drug dependence” (priority 2010, dated 2025).
Like-named read-outs stand apart in the source and are kept apart here.

Key:
[1] = dose of 50 mg/day; cited from earlier work
[2] = test system: methamphetamine dependent subjects; format: in vivo, human
Description: Methods—The study was conducted at 8 sites, 140 subjects consented, screened for study eligibility and met DSM-IV criteria for methamphetamine dependence. Subjects were randomized to topiramate or placebo at 50 mg, escalating to 200 mg topiramate daily over weeks 1-5, and 200 mg daily over weeks 6-12. The primary outcome measure was abstinence from methamphetamine during study weeks 6 through 12. Methamphetamine use was determined using qualitative urine testing at a central laboratory. The primary outcome was analyzed using a Generalized Estimating Equation (GEE) model during weeks 6 through 12. Secondary outcomes included use reduction compared to baseline, relapse rate for subjects with negative urine at randomization, and craving. Blood samples were collected for genetic markers to examine the effects of topiramate on gene expression and to correlate genetic subtypes with response to treatment. RNA samples were collected from whole blood for 50 topiramate- and 49 placebo-treated individuals at baseline and weeks 8 and 12. Genome-wide expression profiles between positive and negative responders for Weeks 8 and 12 from placebo- and topiramate-treated groups were compared.

[3] = cited from earlier work

Row | SMILES | Individuals in alcohol trials unable to tolerate naltrexone [1] | Treatment effect on primary outcome variable (abstinence from methamphetamine, weeks 6-12) ([2]; all subjects) | Treatment effect, exploratory analysis ([2]; subjects (n=26) with negative urine prior to randomization, p=0.02) | Treatment effect, exploratory analysis ([2]; subjects (n=35) whose baseline use was <18 days out of previous 30, p=0.03) | Cognitive impairment reported by individuals who take topiramate ([3]; general population) [%] | Occurrence rate of cognitive impairment ([3]; substance abuse field)
1 | Cl.O=C1CC[C@@]2(O)[C@H]3Cc4ccc(O)c5c4[C@@]2(CCN3CC2CC2)[C@H]1O5 [naltrexone, 17-(Cyclopropylmethyl)-4,5a-epoxy-3,14-dihydroxymorphinan-6-one hydrochloride] | about 15% | – | – | – | – | –
2 | CC1(C)O[C@@H]2[C@@H](CO[C@@]3(COS(N)(=O)=O)OC(C)(C)O[C@@H]23)O1 [topiramate, 2,3:4,5-Bis-O-(1-methylethylidene)-beta-D-fructopyranose sulfamate] | – | no significant treatment effect | significant treatment effect | significant treatment effect | 2.4 | about 18.7%
